PubChem BioAssay (NCI)
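1) Cells in 96-well plates. 2) Compound, 48 h, 5 concentrations. 3) Linear interpolation between surrounding doses. 4) Unreached endpoint = highest concentration. GI50 marks 50% less growth. TGI: total growth inhibition.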

Key:
Assay in all cases: NCI anticancer screen, dose series, 48 h
786-0 renal = tested on: 786-0 renal
A498 renal = tested on: A498 renal
CAKI-1 renal = tested on: CAKI-1 renal
DU-145 prostate = tested on: DU-145 prostate
HL-60(TB) leukemia = tested on: HL-60(TB) leukemia
HOP-62 NSCLC = tested on: HOP-62 NSCLC
HOP-92 NSCLC = tested on: HOP-92 NSCLC
NCI-H23 lung = tested on: NCI-H23 lung
NCI-H522 lung = tested on: NCI-H522 lung
NCI/ADR-RES ovarian = tested on: NCI/ADR-RES ovarian
PC-3 prostate = tested on: PC-3 prostate
RXF 393 renal = tested on: RXF 393 renal
SF-268 CNS = tested on: SF-268 CNS
SK-MEL-28 melanoma = tested on: SK-MEL-28 melanoma
SK-OV-3 ovarian = tested on: SK-OV-3 ovarian
SNB-75 CNS = tested on: SNB-75 CNS
SR leukemia = tested on: SR leukemia
T-47D breast = tested on: T-47D breast
TK-10 renal = tested on: TK-10 renal
UACC-62 melanoma = tested on: UACC-62 melanoma
UO-31 renal = tested on: UO-31 renal
A549 NSCLC = tested on: A549 NSCLC
ACHN renal = tested on: ACHN renal
CCRF-CEM leukemia = tested on: CCRF-CEM leukemia
EKVX NSCLC = tested on: EKVX NSCLC
HCC-2998 colon = tested on: HCC-2998 colon
HCT-116 colon = tested on: HCT-116 colon
HCT-15 colon = tested on: HCT-15 colon
HS 578T breast = tested on: HS 578T breast
K-562 leukemia = tested on: K-562 leukemia
KM12 colon = tested on: KM12 colon
LOX IMVI melanoma = tested on: LOX IMVI melanoma
M14 melanoma = tested on: M14 melanoma
MOLT-4 leukemia = tested on: MOLT-4 leukemia
NCI-H226 lung = tested on: NCI-H226 lung
OVCAR-3 ovarian = tested on: OVCAR-3 ovarian
OVCAR-8 ovarian = tested on: OVCAR-8 ovarian
SF-295 CNS = tested on: SF-295 CNS
SF-539 CNS = tested on: SF-539 CNS
SK-MEL-5 melanoma = tested on: SK-MEL-5 melanoma
SN12C renal = tested on: SN12C renal
SNB-19 CNS = tested on: SNB-19 CNS
U251 CNS = tested on: U251 CNS
UACC-257 melanoma = tested on: UACC-257 melanoma
BT-549 breast = tested on: BT-549 breast
IGROV1 ovarian = tested on: IGROV1 ovarian
MCF7 breast = tested on: MCF7 breast
MDA-MB-231 breast = tested on: MDA-MB-231 breast
MDA-MB-435 = tested on: MDA-MB-435
NCI-H460 lung = tested on: NCI-H460 lung
OVCAR-5 ovarian = tested on: OVCAR-5 ovarian
RPMI-8226 leukemia = tested on: RPMI-8226 leukemia
SK-MEL-2 melanoma = tested on: SK-MEL-2 melanoma
SW-620 colon = tested on: SW-620 colon

CCCCCCCCCCCC[n+]1ccc(CCCCCCCCC)cc1
GI50 (786-0 renal): 1.38 µM
TGI (786-0 renal): 3.07 µM
GI50 (A498 renal): 1.02 µM
TGI (A498 renal): 2.37 µM
GI50 (CAKI-1 renal): 1.51 µM
TGI (CAKI-1 renal): 2.93 µM
GI50 (DU-145 prostate): 1.37 µM
TGI (DU-145 prostate): 2.75 µM
GI50 (HL-60(TB) leukemia): 0.362 µM
TGI (HL-60(TB) leukemia): 1.83 µM
GI50 (HOP-62 NSCLC): 1.41 µM
TGI (HOP-62 NSCLC): 2.9 µM
GI50 (HOP-92 NSCLC): 0.0968 µM
TGI (HOP-92 NSCLC): 0.944 µM
GI50 (NCI-H23 lung): 0.39 µM
TGI (NCI-H23 lung): 1.79 µM
GI50 (NCI-H522 lung): 0.695 µM
TGI (NCI-H522 lung): 2.19 µM
GI50 (NCI/ADR-RES ovarian): 1.86 µM
TGI (NCI/ADR-RES ovarian): 3.62 µM
GI50 (PC-3 prostate): 0.597 µM
TGI (PC-3 prostate): 1.93 µM
GI50 (RXF 393 renal): 1.36 µM
TGI (RXF 393 renal): 2.86 µM
GI50 (SF-268 CNS): 1.38 µM
TGI (SF-268 CNS): 2.94 µM
GI50 (SK-MEL-28 melanoma): 1.31 µM
TGI (SK-MEL-28 melanoma): 2.86 µM
GI50 (SK-OV-3 ovarian): 1.51 µM
TGI (SK-OV-3 ovarian): 2.89 µM
GI50 (SNB-75 CNS): 1.26 µM
TGI (SNB-75 CNS): 2.57 µM
GI50 (SR leukemia): 1.47 µM
TGI (SR leukemia): 4.55 µM
GI50 (T-47D breast): 0.28 µM
TGI (T-47D breast): 1.54 µM
GI50 (TK-10 renal): 1.35 µM
TGI (TK-10 renal): 2.76 µM
GI50 (UACC-62 melanoma): 0.465 µM
TGI (UACC-62 melanoma): 1.73 µM
GI50 (UO-31 renal): 1.27 µM
TGI (UO-31 renal): 2.59 µM

Cc1cccc(C(O)c2ccncc2)c1O (centres undefined)
TGI (A549 NSCLC): > 100 µM
TGI (ACHN renal): > 100 µM
TGI (CCRF-CEM leukemia): > 100 µM
TGI (DU-145 prostate): > 100 µM
TGI (EKVX NSCLC): > 100 µM
TGI (HCC-2998 colon): > 100 µM
TGI (HCT-116 colon): > 100 µM
TGI (HCT-15 colon): > 100 µM
TGI (HL-60(TB) leukemia): > 100 µM
TGI (HOP-62 NSCLC): > 100 µM
TGI (HS 578T breast): > 100 µM
TGI (K-562 leukemia): > 100 µM
TGI (KM12 colon): > 100 µM
TGI (LOX IMVI melanoma): > 100 µM
TGI (M14 melanoma): > 100 µM
TGI (MOLT-4 leukemia): > 100 µM
TGI (NCI-H226 lung): > 100 µM
TGI (NCI-H23 lung): > 100 µM
TGI (NCI-H522 lung): > 100 µM
TGI (NCI/ADR-RES ovarian): > 100 µM
TGI (OVCAR-3 ovarian): > 100 µM
TGI (OVCAR-8 ovarian): > 100 µM
TGI (PC-3 prostate): > 100 µM
TGI (RXF 393 renal): > 100 µM
TGI (SF-268 CNS): > 100 µM
TGI (SF-295 CNS): > 100 µM
TGI (SF-539 CNS): > 100 µM
TGI (SK-MEL-5 melanoma): > 100 µM
TGI (SN12C renal): > 100 µM
TGI (SNB-19 CNS): > 100 µM
TGI (SNB-75 CNS): > 100 µM
TGI (T-47D breast): > 100 µM
TGI (U251 CNS): > 100 µM
TGI (UACC-257 melanoma): > 100 µM
TGI (UACC-62 melanoma): > 100 µM
TGI (UO-31 renal): > 100 µM

CCOP(=O)(OCC)C(NC(c1ccccc1)c1ccccc1)c1cccc2ccccc12 (centres undefined)
GI50 (786-0 renal): 2.9 µM
TGI (786-0 renal): 9.64 µM
GI50 (A549 NSCLC): 4.28 µM
TGI (A549 NSCLC): > 100 µM
GI50 (ACHN renal): 4.1 µM
TGI (ACHN renal): 12.3 µM
GI50 (BT-549 breast): 23.8 µM
TGI (BT-549 breast): 53.5 µM
GI50 (CAKI-1 renal): 4.09 µM
TGI (CAKI-1 renal): 14.5 µM
GI50 (CCRF-CEM leukemia): 5.86 µM
TGI (CCRF-CEM leukemia): > 100 µM
GI50 (DU-145 prostate): 20.4 µM
TGI (DU-145 prostate): 39 µM
GI50 (EKVX NSCLC): 16.2 µM
TGI (EKVX NSCLC): 35.5 µM
GI50 (HCC-2998 colon): 4.55 µM
TGI (HCC-2998 colon): 17.2 µM
GI50 (HCT-15 colon): 1.51 µM
TGI (HCT-15 colon): 8.78 µM
GI50 (HL-60(TB) leukemia): 14.1 µM
TGI (HL-60(TB) leukemia): > 100 µM
GI50 (HOP-92 NSCLC): 11.7 µM
TGI (HOP-92 NSCLC): 28.4 µM
GI50 (HS 578T breast): 29.9 µM
TGI (HS 578T breast): 67.3 µM
GI50 (IGROV1 ovarian): 23.6 µM
TGI (IGROV1 ovarian): > 100 µM
GI50 (K-562 leukemia): 3.99 µM
TGI (K-562 leukemia): 21 µM
GI50 (KM12 colon): 5.32 µM
TGI (KM12 colon): 23 µM
GI50 (M14 melanoma): 3.03 µM
TGI (M14 melanoma): 7.71 µM
GI50 (MCF7 breast): 4.04 µM
TGI (MCF7 breast): 24.3 µM
GI50 (MDA-MB-231 breast): 1.56 µM
TGI (MDA-MB-231 breast): 9.63 µM
GI50 (MDA-MB-435): 9.18 µM
TGI (MDA-MB-435): 28.3 µM
GI50 (MOLT-4 leukemia): 4.17 µM
TGI (MOLT-4 leukemia): > 100 µM
GI50 (NCI-H226 lung): 4.63 µM
TGI (NCI-H226 lung): 19 µM
GI50 (NCI-H23 lung): 13.3 µM
TGI (NCI-H23 lung): 29.5 µM
GI50 (NCI-H460 lung): 5.05 µM
TGI (NCI-H460 lung): 25.8 µM
GI50 (NCI-H522 lung): 7.96 µM
TGI (NCI-H522 lung): > 100 µM
GI50 (NCI/ADR-RES ovarian): 9.79 µM
TGI (NCI/ADR-RES ovarian): 22.6 µM
GI50 (OVCAR-3 ovarian): 4.22 µM
TGI (OVCAR-3 ovarian): 12.5 µM
GI50 (OVCAR-5 ovarian): 14.3 µM
TGI (OVCAR-5 ovarian): 34.4 µM
GI50 (OVCAR-8 ovarian): 6.14 µM
TGI (OVCAR-8 ovarian): > 100 µM
GI50 (PC-3 prostate): 3.37 µM
TGI (PC-3 prostate): 13.9 µM
GI50 (RPMI-8226 leukemia): 2.38 µM
TGI (RPMI-8226 leukemia): 5.57 µM
GI50 (SF-268 CNS): 5.75 µM
TGI (SF-268 CNS): 21.2 µM
GI50 (SF-295 CNS): 6.76 µM
TGI (SF-295 CNS): 65.7 µM
GI50 (SF-539 CNS): 23 µM
TGI (SF-539 CNS): 41.4 µM
GI50 (SK-MEL-2 melanoma): 27.7 µM
TGI (SK-MEL-2 melanoma): > 100 µM
GI50 (SK-MEL-5 melanoma): 14.9 µM
TGI (SK-MEL-5 melanoma): 32.2 µM
GI50 (SN12C renal): 2.68 µM
TGI (SN12C renal): 8.65 µM
GI50 (SR leukemia): 4.91 µM
TGI (SR leukemia): > 100 µM
GI50 (SW-620 colon): 22.2 µM
TGI (SW-620 colon): 57.6 µM
GI50 (TK-10 renal): 10.3 µM
TGI (TK-10 renal): 29.4 µM
GI50 (UACC-257 melanoma): 3.22 µM
TGI (UACC-257 melanoma): 13.9 µM
GI50 (UACC-62 melanoma): 2.58 µM
TGI (UACC-62 melanoma): 9.1 µM
GI50 (UO-31 renal): 12.3 µM
TGI (UO-31 renal): > 100 µM
